According to US20110136801A1, “Novel Compounds” (Dainippon Sumitomo Pharma Co. Ltd., priority 2009, published 2011):

biological target: T1, human TLR7 (Homo sapiens, UniProt Q9NYK1); experiment: Human TLR7 Assay (SEAP reporter in HEK293 cells); assay type: cell-based; conditions: HEK293 cell line expressing human TLR7 and pNiFty2-SEAP reporter, overnight incubation at 37° C., 0.1% DMSO; read-out: hTLR7 EC50;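 note: Read-out is secreted alkaline phosphatase made under an NFkB/ELAM-1 composite promoter, reporting TLR7-triggered NFkB activation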
T1 construct: expressed in transfected cells; host or cells: HEK293 cell line stably expressing the pNiFty2-SEAP reporter plasmid; TLR7 in pUNO vector, blasticidin selection
T1 sequence (Q9NYK1 27-1049): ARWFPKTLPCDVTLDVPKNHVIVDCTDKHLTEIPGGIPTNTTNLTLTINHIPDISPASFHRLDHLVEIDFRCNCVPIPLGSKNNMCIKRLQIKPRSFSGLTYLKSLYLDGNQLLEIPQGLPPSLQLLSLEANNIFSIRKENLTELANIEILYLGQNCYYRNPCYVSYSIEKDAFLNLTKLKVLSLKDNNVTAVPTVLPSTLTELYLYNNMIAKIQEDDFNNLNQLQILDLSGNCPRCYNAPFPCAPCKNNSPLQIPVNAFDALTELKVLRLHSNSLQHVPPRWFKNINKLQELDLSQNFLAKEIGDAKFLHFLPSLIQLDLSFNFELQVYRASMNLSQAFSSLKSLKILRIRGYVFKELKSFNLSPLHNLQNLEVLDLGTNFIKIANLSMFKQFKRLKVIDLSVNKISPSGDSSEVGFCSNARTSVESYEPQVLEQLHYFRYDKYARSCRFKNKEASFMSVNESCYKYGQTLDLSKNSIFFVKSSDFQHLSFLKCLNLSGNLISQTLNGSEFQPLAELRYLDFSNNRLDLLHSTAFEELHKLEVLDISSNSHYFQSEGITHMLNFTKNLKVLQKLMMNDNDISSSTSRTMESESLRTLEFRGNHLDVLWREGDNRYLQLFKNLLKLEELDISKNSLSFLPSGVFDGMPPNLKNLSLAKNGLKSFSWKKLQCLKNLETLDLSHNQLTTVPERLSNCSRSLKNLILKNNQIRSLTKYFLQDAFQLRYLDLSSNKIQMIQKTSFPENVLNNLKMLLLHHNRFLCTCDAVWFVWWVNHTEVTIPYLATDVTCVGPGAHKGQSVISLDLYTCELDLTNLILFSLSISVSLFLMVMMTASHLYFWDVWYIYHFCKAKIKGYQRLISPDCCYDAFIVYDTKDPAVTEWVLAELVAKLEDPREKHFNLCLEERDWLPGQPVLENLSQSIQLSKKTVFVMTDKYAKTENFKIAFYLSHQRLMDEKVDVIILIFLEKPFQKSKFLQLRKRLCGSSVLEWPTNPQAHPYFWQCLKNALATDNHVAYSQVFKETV
Excerpt: The most common variant sequence of human TLR7 (represented by the EMBL sequence AF240467) was cloned into the mammalian cell expression vector pUNO and transfected into a HEK293 cell line already stably expressing the pNiFty2-SEAP reporter plasmid; integration of the reporter gene was maintained by selection with the antibiotic zeocin. Transfectants with stable TLR7 expression were selected using the antibiotic blasticidin. In this reporter cell-line, expression of secreted alkaline phosphatase (SEAP) is controlled by an NFkB/ELAM-1 composite promoter comprising five NFkB sites combined with the proximal ELAM-1 promoter. TLR signaling leads to the translocation of NFkB and activation of the promoter results in expression of the SEAP gene. TLR7-specific activation was assessed by determining the level of SEAP produced following overnight incubation of the cells at 37° C. with the standard compound in the presence of 0.1% (v/v) dimethylsulfoxide (DMSO). Concentration dependent induction of SEAP production by compounds was expressed as the concentration of compound which produced half of the maximal level of SEAP induction for that compound (EC50).

Row | Compound | EC50 [nM]
1 | CCCCc1nc2c(N)nc3ccccc3c2n1CCCN(Cc1cccc(OCC(=O)OC(C)C)c1F)C(=O)CN(C)C [Example 165, Isopropyl 2-[3-({N-[3-(4-amino-2-butyl-1H-imidazo[4,5-c]quinolin-1-yl)propyl]-2-(dimethylamino)acetamido}methyl)-2-fluorophenoxy]acetate] | 297
2 | CCN(CC)CC(=O)N(CCCn1c(CCOC)nc2c(N)nc3ccccc3c21)Cc1cccc(OCC(=O)OCCO)c1 [Example 30, 2-Hydroxyethyl 2-{3-[(N-{3-[4-amino-2-(2-methoxyethyl)-1H-imidazo[4,5-c]quinolin-1-yl]propyl}-2-(diethylamino)acetamido)methyl]phenoxy}acetate] | 1460
3 | CCOC(=O)COc1cccc(CN(CCCCn2c(CCOC)nc3c(N)nc4ccccc4c32)C(=O)NCCN(C)C)c1 [Example 127, Ethyl 2-{3-[(1-{4-[4-amino-2-(2-methoxyethyl)-1H-imidazo[4,5-c]quinolin-1-yl]butyl}-3-{2-(dimethylamino)ethyl}ureido)methyl]phenoxy}acetate] | 42.9
4 | CCN(C)CC(=O)N(CCCn1c(CCOC)nc2c(N)nc3ccccc3c21)Cc1cccc(OCC(=O)OC2CCCC2)c1 [Example 111, Cyclopentyl 2-{3-[(N-{3-[4-amino-2-(2-methoxyethyl)-1H-imidazo[4,5-c]quinolin-1-yl]propyl}-2-{ethyl(methyl)amino}acetamido)methyl]phenoxy}acetate] | 123
5 | COCCc1nc2c(N)nc3ccccc3c2n1CCCCN(CCCN1CCOCC1)Cc1cccc(OC(C)(C)C(=O)OC)c1 [Example 137, Methyl 2-{3-[({4-[4-amino-2-(2-methoxyethyl)-1H-imidazo[4,5-c]quinolin-1-yl]butyl}{3-morpholinopropyl}amino)methyl]phenoxy}-2-methylpropanoate] | 87.7
6 | CCN(CC)CC(=O)N(CCCn1c(CCOC)nc2c(N)nc3ccccc3c21)Cc1cccc(OCC(=O)OC2CCC2)c1 [Example 81, Cyclobutyl 2-{3-[(N-{3-[4-amino-2-(2-methoxyethyl)-1H-imidazo[4,5-c]quinolin-1-yl]propyl}-2-{diethylamino}acetamido)methyl]phenoxy}acetate] | 56.1
7 | CCCCc1nc2c(N)nc3ccccc3c2n1CCCN(Cc1ccc(OCC(=O)OC)cc1)C(=O)CN1CCCCC1 [Example 6, Methyl (4-{[[3-(4-amino-2-butyl-1H-imidazo[4,5-c]quinolin-1-yl)propyl](piperidin-1-ylacetyl)amino]methyl}phenoxy)acetate] | 169
8 | COCCc1nc2c(N)nc3ccccc3c2n1CCCN(Cc1ccc(OC)c(OCC(=O)OC(C)C)c1)C(=O)CN(C)C [Example 75, Isopropyl 2-{5-[(N-{3-[4-amino-2-(2-methoxyethyl)-1H-imidazo[4,5-c]quinolin-1-yl]propyl}-2-{dimethylamino}acetamido)methyl]-2-methoxyphenoxy}acetate] | 405
9 | CCCCc1nc2c(N)nc3ccccc3c2n1CCCN(Cc1cccc(OC(C)(C)C(=O)OCC)c1)C(=O)CN(C)C [Example 155, Ethyl 2-[3-({N-[3-(4-amino-2-butyl-1H-imidazo[4,5-c]quinolin-1-yl)propyl]-2-(dimethylamino)acetamido}methyl)phenoxy]-2-methylpropanoate] | 235
10 | CCOC(=O)C(CC)Oc1cccc(CN(CCCn2c(CCOC)nc3c(N)nc4ccccc4c32)C(=O)CN(CC)CC)c1 (centres unmarked) [Example 71, Ethyl 2-{3-[(N-{3-[4-amino-2-(2-methoxyethyl)-1H-imidazo[4,5-c]quinolin-1-yl]propyl}-2-{diethylamino}acetamido)methyl]phenoxy}butanoate] | 23
11 | CCN(CC)CC(=O)N(CCCn1c(CCOC)nc2c(N)nc3ccccc3c21)Cc1ccc(C)c(OCC(=O)OC(C)C)c1 [Example 67, Isopropyl 2-{5-[(N-{3-[4-amino-2-(2-methoxyethyl)-1H-imidazo[4,5-c]quinolin-1-yl]propyl}-2-{diethylamino}acetamido)methyl]-2-methylphenoxy}acetate] | 45.8
12 | CCN(CC)CC(=O)N(CCCn1c(CCOC)nc2c(N)nc3ccccc3c21)Cc1ccc(OC)c(OCC(=O)OC(C)C)c1 [Example 72, Isopropyl 2-{5-[(N-{3-[4-amino-2-(2-methoxyethyl)-1H-imidazo[4,5-c]quinolin-1-yl]propyl}-2-{diethylamino}acetamido)methyl]-2-methoylphenoxy}acetate] | 55.8
13 | CCOC(=O)C(C)(C)Oc1cccc(CN(CCCCn2c(CCOC)nc3c(N)nc4ccccc4c32)CCCN2CCOCC2)c1 [Example 136, Ethyl 2-{3-[({4-[4-amino-2-(2-methoxyethyl)-1H-imidazo[4,5-c]quinolin-1-yl]butyl}{3-morpholinopropyl}amino)methyl]phenoxy}-2-methylpropanoate] | 111
14 | CCN(CC)CC(=O)N(CCCn1c(CCOC)nc2c(N)nc3ccccc3c21)Cc1cc(F)cc(OCC(=O)OC(C)C)c1 [Example 123, Isopropyl 2-{3-[(N-{3-[4-amino-2-(2-methoxyethyl)-1H-imidazo[4,5-c]quinolin-1-yl]propyl}-2-{diethylamino}acetamido)methyl]-5-fluorophenoxy}acetate] | 50.2
15 | CCN(CC)CC(=O)N(CCCn1c(CCOC)nc2c(N)nc3ccccc3c21)Cc1ccc(F)c(OCC(=O)OC(C)C)c1 [Example 118, Isopropyl 2-{5-[(N-{3-[4-amino-2-(2-methoxyethyl)-1H-imidazo[4,5-c]quinolin-1-yl]propyl}-2-{diethylamino}acetamido)methyl]-2-fluorophenoxy}acetate] | 77.4

Continued, values first:

Row | EC50 [nM] | Compound
16 | 54.6 | CCCOC(=O)COc1cccc(CN(CCCn2c(CCOC)nc3c(N)nc4ccccc4c32)C(=O)CN(CC)CC)c1 [Example 26, Propyl 2-{3-[(N-{3-[4-amino-2-(2-methoxyethyl)-1H-imidazo[4,5-c]quinolin-1-yl]propyl}-2-(diethylamino)acetamido)methyl]phenoxy}acetate]
17 | 475 | CCOCc1nc2c(N)nc3ccccc3c2n1CCCN(Cc1cccc(OCC(=O)OC(C)C)c1F)C(=O)CN(CC)CC [Example 166, Isopropyl 2-{3-[(N-{3-[4-amino-2-(ethoxymethyl)-1H-imidazo[4,5-c]quinolin-1-yl]propyl}-2-{diethylamino}acetamido)methyl]-2-fluorophenoxy}acetate]
18 | 304 | COCCc1nc2c(N)nc3ccccc3c2n1CCCN(Cc1cccc(OCC(=O)OC(C)C)c1F)C(=O)CN(C)C [Example 96, Isopropyl 2-{3-[(N-{3-[4-amino-2-(2-methoxyethyl)-1H-imidazo[4,5-c]quinolin-1-yl]propyl}-2-{dimethylamino}acetamido)methyl]-2-fluorophenoxy}acetate]
19 | 447 | CCOC(=O)COc1cccc(CN(CCCn2c(CCOC)nc3c(N)nc4ccccc4c32)C(=O)CN(C)C)c1F [Example 95, Ethyl 2-{3-[(N-{3-[4-amino-2-(2-methoxyethyl)-1H-imidazo[4,5-c]quinolin-1-yl]propyl}-2-{dimethylamino}acetamido)methyl]-2-fluorophenoxy}acetate]
20 | 73.9 | CCOC(=O)COc1cccc(CN(CCCn2c(CCOC)nc3c(N)nc4ccccc4c32)C(=O)CN(CC)CC)c1F [Example 93, Ethyl 2-{3-[(N-{3-[4-amino-2-(2-methoxyethyl)-1H-imidazo[4,5-c]quinolin-1-yl]propyl}-2-{diethylamino}acetamido)methyl]-2-fluorophenoxy}acetate]
21 | 22.7 | CCOC(=O)COc1cccc(CN(CCCCn2c(CCOC)nc3c(N)nc4ccccc4c32)C(=O)CN(CC)CC)c1 [Example 44, Ethyl 2-{3-[(N-{4-[4-amino-2-(2-methoxyethyl)-1H-imidazo[4,5-c]quinolin-1-yl]butyl}-2-(diethylamino)acetamido)methyl]phenoxy}acetate]
22 | 243 | CCN(CC)CC(=O)N(CCCn1c(CCOC)nc2c(N)nc3ccccc3c21)Cc1ccccc1OCC(=O)OC [Example 40, Methyl 2-{2-[(N-{3-[4-amino-2-(2-methoxyethyl)-1H-imidazo[4,5-c]quinolin-1-yl]propyl}-2-(diethylamino)acetamido)methyl]phenoxy}acetate]
23 | 95.7 | CCOC(=O)COc1cccc(CN(CCCn2c(CCOC)nc3c(N)nc4ccccc4c32)C(=O)CN(CC)CC)c1OC [Example 89, Ethyl 2-{3-[(N-{3-[4-amino-2-(2-methoxyethyl)-1H-imidazo[4,5-c]quinolin-1-yl]propyl}-2-{diethylamino}acetamido)methyl]-2-methoxyphenoxy}acetate]
